# From ChEMBL document CHEMBL1201862, “PubChem BioAssay data set” (2004)
# Calls of active or inactive are those of the source.
# Assays:
# [1] = biological target: SWI/SNF-related matrix-associated actin-dependent regulator of chromatin subfamily A member 2 (Homo sapiens, UniProt P51531); assay: Luminescence-based cell-based high throughput dose response assay to identify activators of the function of SWI/SNF related, matrix associated, actin dependent regulator of chromatin, subfamily a, member 2 (SMARCA2, BRM).; type: functional
# [2] = Counterscreen for activators of the function of SWI/SNF related, matrix associated, actin dependent regulator of chromatin, subfamily a, member 2 (SMARCA2, BRM): Luminescence-based cell-based high throughput dose response assay to identify non-selective compounds using the VP16 reporter assay.; type: functional
# [3] = inhibitors of intracellular T. cruzi replication, confirmation, NIH3T3 host cells, beta-gal luminescence (AID 2044); type: functional, cell-based;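 further: intracellular parasites grown in NIH/3T3 mouse fibroblasts as host cells; luminescent beta-galactosidase reporter signal from transgenic T. cruzi replicating inside host cells; inhibitors lower the luminescence signal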
# [4] = cytotoxicity toward NIH3T3 fibroblasts, dose response, counter-screen, cell-based, ATP luminescence, mouse fibroblasts (AID 2010); type: functional;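 further: cells exposed to compound for about 90 hours before reading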
# [5] = system: HEK293; assay: inhibitors of LMP1-driven NF-kB reporter, dose response, cell-based, HEK293, luciferase, cherry-pick (AID 588343); type: functional; conditions: Homo sapiens
# [6] = system: HeLa; assay: HeLa cell cytotoxicity, dose response, cytotoxicity control for MITF activator project, CellTiter-Glo luminescence, cherry-pick samples (AID 540259); type: functional, cell-based; conditions: Homo sapiens
# [7] = biological target: Luciferin 4-monooxygenase (Photinus pyralis, UniProt P08659); assay: firefly luciferase enzyme inhibitors, dose response, biochemical, luminescence (AID 1891)
# [8] = Luminescence Cell-Based Dose Confirmation HTS to Identify Inhibitors of Platelet Dense Granule Release. [Related pubchem assays: 1663 (Primary HTS), 1678 (Summary of Project)]; type: functional
# [9] = inhibitors of HIV Env-driven cell fusion, dose response, cherry-pick (AID 652057); type: functional, cell-based
# [10] = CEM21 lymphoblast cell cytotoxicity, dose response, cytotoxicity control for viral fusion inhibitor project, CellTiter-Glo luminescence, cherry-picked (AID 652042); type: functional, cell-based;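 further: potency for signal decrease meaning cytotoxicity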
# [11] = inhibitors of clade B AD8 Env fusion, dose response, cell-based, cherry-pick (AID 652062); type: functional;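 further: luciferase signal from cell-cell fusion driven by HIV-1 clade B AD8 Env; potency is for inhibitors of fusion seen as a drop in luminescence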
# [12] = P. falciparum Dd2 growth inhibitors, dose response, SYBR Green, cherry-picked samples (AID 1159567); type: functional, cell-based
# [13] = biological target: T1, Coagulation factor XII (Homo sapiens, UniProt P00748); type: functional;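 further: activated factor XIIa alpha cleaving a fluorogenic AMC peptide substrate; inhibitor potency from loss of enzyme activity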
# T1 sequence (P00748 whole entry): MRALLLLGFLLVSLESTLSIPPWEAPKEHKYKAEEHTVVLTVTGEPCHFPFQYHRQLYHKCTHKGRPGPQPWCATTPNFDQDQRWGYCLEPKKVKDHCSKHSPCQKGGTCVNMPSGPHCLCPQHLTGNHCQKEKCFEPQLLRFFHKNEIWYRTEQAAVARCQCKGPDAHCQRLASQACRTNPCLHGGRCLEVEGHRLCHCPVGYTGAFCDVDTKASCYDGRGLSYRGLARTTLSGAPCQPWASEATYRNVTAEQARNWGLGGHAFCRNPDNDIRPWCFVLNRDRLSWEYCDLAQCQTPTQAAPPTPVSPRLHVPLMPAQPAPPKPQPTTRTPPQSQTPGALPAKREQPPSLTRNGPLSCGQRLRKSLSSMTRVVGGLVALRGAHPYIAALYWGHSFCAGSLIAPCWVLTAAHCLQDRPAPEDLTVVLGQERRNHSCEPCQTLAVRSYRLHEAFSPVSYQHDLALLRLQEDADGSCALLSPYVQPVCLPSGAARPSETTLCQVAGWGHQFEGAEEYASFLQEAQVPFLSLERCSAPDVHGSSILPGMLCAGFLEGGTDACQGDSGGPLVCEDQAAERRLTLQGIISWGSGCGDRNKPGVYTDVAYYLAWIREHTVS
# [14] = biological target: Cytochrome P450 2D6 (Homo sapiens, UniProt P10635);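 further: CYP2D6 member of a cytochrome P450 panel assay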
# [15] = biological target: T2, Cytochrome P450 1A2 (Homo sapiens, UniProt P05177);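 further: PubChem cytochrome P450 panel assay, CYP1A2 panel member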
# T2 sequence (P05177 whole entry): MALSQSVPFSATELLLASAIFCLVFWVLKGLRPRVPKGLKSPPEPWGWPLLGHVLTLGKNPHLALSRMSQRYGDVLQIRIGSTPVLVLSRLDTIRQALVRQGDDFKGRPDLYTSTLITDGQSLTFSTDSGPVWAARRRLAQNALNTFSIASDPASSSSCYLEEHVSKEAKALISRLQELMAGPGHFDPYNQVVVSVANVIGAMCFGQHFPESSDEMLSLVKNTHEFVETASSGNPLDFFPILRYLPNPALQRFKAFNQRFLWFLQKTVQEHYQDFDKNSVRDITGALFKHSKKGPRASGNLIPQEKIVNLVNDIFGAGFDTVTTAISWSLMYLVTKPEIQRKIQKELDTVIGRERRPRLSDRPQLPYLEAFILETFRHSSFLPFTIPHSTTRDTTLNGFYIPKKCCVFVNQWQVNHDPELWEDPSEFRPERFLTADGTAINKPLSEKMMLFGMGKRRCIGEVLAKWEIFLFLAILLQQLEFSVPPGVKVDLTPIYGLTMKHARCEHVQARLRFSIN
# [16] = biological target: Cytochrome P450 3A4 (Homo sapiens, UniProt P08684);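 further: CYP3A4 tested as one member of a cytochrome P450 panel screen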
# [17] = biological target: Cytochrome P450 2C9 (Homo sapiens, UniProt P11712)
# [18] = Luminescence Cell-Based Dose Response HTS to Identify Activators of Luciferase Translation or Activity in H4 […] Cells. [Related pubchem assays: 1829 (Project Summary), 1814 (Primary HTS)]; type: functional
# [19] = system: Streptococcus sp. 'group A'; assay: growth inhibition of control SK(-) GAS strain, dose response, counter-screen for streptokinase expression inhibitor project, luminescence, kanamycin, BacTiterGlo, confirmation (AID 1900); type: functional, organism-based
# [20] = system: H4; assay: Luminescence Cell-Based Dose Response HTS to Identify Activators of 5'UTR Stem-Loop Driven Prion Protein mRNA Translation in H4 Neuroglioblastoma Cells. [Related pubchem assays: 1829 (Project Summary), 1814 (Primary HTS)]; type: functional; conditions: Homo sapiens
# [21] = system: Streptococcus; assay: Group A Streptococcus viability loss, dose response, counter-screen for streptokinase expression inhibitor project, luminescence, BacTiterGlo (AID 1915); type: functional, organism-based;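 further: potency for reduction of bacterial viability or growth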
# [22] = cells; type: functional
# [23] = biological target: T3, Corticotropin-releasing factor receptor 2/Corticotropin-releasing factor-binding protein (Homo sapiens, UniProt P24387+Q13324); assay: activators of CRF receptor 2 with binding protein – uHTS hits, confirmation (AID 602473); type: functional; conditions: read-out: EC50_Mean
# T3 sequence (Q13324 whole entry): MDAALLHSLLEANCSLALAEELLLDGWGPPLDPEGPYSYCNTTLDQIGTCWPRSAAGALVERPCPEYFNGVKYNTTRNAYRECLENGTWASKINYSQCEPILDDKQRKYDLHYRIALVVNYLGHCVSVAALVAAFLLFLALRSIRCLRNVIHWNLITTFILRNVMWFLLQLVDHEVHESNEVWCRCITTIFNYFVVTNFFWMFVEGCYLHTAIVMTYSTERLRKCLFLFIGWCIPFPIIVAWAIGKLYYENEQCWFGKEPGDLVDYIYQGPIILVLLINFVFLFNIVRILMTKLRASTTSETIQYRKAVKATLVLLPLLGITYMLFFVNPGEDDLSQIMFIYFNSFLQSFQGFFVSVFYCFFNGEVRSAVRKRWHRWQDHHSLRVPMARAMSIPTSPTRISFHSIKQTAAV
# T3 sequence (P24387 whole entry): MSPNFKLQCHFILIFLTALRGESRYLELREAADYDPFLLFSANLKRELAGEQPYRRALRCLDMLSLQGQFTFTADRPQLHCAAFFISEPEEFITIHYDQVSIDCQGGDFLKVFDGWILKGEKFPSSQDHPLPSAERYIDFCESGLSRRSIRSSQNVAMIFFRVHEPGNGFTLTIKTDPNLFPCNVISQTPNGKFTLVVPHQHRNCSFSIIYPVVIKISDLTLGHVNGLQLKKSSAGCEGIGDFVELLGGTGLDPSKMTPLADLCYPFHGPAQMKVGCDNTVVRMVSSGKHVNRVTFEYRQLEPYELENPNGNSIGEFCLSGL
# [24] = ZM109 Env clade C HIV-1 fusion inhibitors, dose response, HeLa effector, CEM target cells, luciferase, cherry-pick (AID 652058); type: functional, cell-based
# [25] = off-target signal loss in HeLa-CEM21 co-culture – HeLa F-luc CTL cells, cherry-picked, counter-screen for HIV-1 Env fusion inhibitor project, dose response (AID 652040); type: functional, cell-based;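 further: potency for signal decrease marking cytotoxic or nonspecific inhibition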
# Sequence of SWI/SNF-related matrix-associated actin-dependent regulator of chromatin subfamily A member 2 (P51531 whole entry): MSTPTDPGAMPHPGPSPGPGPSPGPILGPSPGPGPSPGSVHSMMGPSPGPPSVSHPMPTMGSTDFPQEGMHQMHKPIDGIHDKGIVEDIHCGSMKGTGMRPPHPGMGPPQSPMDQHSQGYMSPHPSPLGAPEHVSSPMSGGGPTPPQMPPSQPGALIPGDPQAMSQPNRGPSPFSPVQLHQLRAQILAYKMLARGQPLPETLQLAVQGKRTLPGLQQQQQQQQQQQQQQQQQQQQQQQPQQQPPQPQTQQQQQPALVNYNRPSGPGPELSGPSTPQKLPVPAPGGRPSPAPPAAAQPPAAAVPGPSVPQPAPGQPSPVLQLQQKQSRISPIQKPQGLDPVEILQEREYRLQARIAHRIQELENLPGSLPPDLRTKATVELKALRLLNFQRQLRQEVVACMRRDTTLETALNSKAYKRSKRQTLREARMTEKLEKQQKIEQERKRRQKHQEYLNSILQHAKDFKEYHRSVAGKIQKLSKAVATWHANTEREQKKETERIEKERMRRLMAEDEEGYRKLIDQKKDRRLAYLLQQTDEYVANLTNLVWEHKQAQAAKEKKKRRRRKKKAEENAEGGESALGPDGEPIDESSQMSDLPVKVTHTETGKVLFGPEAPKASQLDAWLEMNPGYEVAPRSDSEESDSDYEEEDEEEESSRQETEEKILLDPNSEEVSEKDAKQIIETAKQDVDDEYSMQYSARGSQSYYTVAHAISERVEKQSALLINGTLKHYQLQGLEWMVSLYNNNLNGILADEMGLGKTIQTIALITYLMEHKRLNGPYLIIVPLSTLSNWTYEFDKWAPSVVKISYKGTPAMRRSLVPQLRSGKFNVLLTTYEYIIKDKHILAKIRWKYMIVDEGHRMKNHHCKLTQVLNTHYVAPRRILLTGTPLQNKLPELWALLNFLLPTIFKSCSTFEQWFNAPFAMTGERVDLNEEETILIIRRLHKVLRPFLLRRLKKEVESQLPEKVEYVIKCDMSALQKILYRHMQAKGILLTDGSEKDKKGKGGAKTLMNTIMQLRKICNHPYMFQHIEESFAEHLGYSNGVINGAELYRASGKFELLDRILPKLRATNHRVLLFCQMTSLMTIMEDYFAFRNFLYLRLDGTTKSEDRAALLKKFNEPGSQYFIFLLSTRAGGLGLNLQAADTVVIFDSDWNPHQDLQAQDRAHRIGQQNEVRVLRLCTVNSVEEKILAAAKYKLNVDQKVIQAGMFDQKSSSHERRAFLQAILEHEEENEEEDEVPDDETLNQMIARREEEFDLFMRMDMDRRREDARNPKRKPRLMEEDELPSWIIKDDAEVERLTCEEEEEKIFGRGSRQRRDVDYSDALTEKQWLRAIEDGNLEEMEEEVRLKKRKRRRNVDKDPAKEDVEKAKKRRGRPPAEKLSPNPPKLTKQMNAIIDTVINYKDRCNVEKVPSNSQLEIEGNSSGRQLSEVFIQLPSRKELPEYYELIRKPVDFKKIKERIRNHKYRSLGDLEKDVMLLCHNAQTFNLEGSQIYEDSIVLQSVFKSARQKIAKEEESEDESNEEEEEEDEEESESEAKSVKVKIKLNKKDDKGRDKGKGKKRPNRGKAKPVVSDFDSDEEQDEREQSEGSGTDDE
# Sequence of Cytochrome P450 2D6 (P10635 whole entry): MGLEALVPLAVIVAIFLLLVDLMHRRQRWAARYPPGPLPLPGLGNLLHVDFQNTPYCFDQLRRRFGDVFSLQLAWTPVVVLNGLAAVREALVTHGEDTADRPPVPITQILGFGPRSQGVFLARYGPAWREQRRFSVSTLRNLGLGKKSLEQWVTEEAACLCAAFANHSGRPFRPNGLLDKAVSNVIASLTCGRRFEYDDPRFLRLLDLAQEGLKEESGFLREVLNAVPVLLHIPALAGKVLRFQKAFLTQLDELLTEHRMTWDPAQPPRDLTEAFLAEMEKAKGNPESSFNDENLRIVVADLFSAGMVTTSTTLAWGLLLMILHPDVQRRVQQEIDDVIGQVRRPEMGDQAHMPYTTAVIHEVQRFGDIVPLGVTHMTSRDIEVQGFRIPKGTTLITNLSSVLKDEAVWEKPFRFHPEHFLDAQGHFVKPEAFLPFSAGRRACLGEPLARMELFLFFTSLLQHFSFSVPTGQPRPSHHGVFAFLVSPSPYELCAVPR
# Sequence of Cytochrome P450 3A4 (P08684 whole entry): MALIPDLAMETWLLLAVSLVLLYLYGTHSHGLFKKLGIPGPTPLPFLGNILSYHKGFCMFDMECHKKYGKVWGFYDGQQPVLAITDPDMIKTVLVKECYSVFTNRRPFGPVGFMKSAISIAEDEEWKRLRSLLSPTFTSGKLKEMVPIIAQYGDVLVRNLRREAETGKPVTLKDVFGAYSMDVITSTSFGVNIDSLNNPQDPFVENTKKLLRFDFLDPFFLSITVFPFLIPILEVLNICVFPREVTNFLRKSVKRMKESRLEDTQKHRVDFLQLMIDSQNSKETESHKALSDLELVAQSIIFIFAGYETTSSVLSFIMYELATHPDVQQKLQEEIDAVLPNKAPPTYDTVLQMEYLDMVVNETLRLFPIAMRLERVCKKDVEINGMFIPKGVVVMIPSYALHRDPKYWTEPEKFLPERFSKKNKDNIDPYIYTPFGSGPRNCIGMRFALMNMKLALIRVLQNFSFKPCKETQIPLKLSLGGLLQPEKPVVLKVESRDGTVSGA
# Sequence of Cytochrome P450 2C9 (P11712 whole entry): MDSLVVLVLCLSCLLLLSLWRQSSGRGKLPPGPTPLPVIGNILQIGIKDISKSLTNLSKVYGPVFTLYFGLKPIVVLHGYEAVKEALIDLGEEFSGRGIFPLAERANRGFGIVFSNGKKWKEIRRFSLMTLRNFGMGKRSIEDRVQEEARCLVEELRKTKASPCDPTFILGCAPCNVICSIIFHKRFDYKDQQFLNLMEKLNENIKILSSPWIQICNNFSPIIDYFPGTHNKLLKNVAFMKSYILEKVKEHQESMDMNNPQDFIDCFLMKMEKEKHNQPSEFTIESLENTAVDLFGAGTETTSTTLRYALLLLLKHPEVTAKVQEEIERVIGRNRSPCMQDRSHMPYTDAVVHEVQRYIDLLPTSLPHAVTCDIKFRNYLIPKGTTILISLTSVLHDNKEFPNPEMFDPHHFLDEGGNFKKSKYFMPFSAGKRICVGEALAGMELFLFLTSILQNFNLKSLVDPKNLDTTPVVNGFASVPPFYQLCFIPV
# Sequence of Luciferin 4-monooxygenase (P08659 whole entry): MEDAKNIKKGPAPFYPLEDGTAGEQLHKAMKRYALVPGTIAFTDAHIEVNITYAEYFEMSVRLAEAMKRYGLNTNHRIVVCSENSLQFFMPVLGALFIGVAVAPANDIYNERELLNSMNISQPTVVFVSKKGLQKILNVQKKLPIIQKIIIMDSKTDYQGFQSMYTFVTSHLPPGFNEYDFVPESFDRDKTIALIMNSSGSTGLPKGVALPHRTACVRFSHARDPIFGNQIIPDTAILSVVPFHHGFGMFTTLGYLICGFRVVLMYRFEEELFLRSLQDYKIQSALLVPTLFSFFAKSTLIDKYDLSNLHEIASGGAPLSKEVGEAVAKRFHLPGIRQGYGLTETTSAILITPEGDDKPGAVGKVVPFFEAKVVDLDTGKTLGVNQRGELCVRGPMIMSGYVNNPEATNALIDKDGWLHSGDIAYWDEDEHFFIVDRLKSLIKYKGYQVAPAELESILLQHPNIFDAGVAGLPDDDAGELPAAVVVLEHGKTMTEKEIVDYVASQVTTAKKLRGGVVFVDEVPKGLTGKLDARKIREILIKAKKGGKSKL
smiles,measurement,setting,value
O=C(NNC(S)=Nc1ccc(F)cc1F)c1ccco1,EC50,[1],> 91.2 µM (inactive)
same,EC50,[2],> 91.2 µM (inactive)
Cc1ccc(S(=O)(=O)N2c3ccccc3-c3c(ssc3=S)C2(C)C)cc1,EC50,[3],2.65 µM (active)
same,EC50,[4],> 60 µM (not active)
same,AC50,[5],43.5 µM (active)
O=C(NC1CCCC1)c1cc(-c2ccc(Cl)cc2Cl)on1,AC50,[6],> 350 µM (inactive)
CCN(CC)c1ccc(Nc2cc3n(c(=O)n2)CCc2cc(OC)c(OC)cc2-3)cc1,EC50,[7],> 112 µM (not active)
same,EC50,[8],> 112 µM (not active)
same,EC50,[1],> 91.2 µM (inactive)
same,EC50,[2],> 91.2 µM (inactive)
C[C@H]1CN([C@@H](C)CO)C(=O)c2c(c3ccccc3n2C)-c2ccccc2CO[C@@H]1CN(C)C(=O)Cc1ccccc1,AC50,[9],< 0.26 µM (active)
same,AC50,[10],27.4 µM (active)
same,AC50,[11],< 0.26 µM (active)
same,AC50,[12],3.45 µM (active)
O=C(c1ccccc1)C1CN(c2ccccc2)CC1c1ccc(Cl)cc1 (configuration not stated),IC50,[13],> 50 µM (inactive)
same,AC50,[14],3.16 µM (inconclusive)
same,AC50,[15],3.55 µM (inconclusive)
same,AC50,[16],8.91 µM (inconclusive)
same,AC50,[17],5.01 µM (inconclusive)
Cc1cccc(OC(=O)c2sc3ncn(C)c(=O)c3c2C)c1,EC50,[18],> 120 µM (not active)
same,EC50,[19],2.85 µM (active)
same,EC50,[20],19.8 µM (active)
same,EC50,[21],7.36 µM (active)
same,IC50,[22],2.87 µM (active)
same,AC50,[6],> 350 µM (inactive)
CC(C)[C@H](N)C(=O)N[C@H]1CCC2C3CC=C4C[C@@H](O)CC[C@]4(C)C3CC[C@@]21C (some centres not stated),EC50,[1],> 91.2 µM (inactive)
same,EC50,[2],> 91.2 µM (inactive)
CC1=CC(C)(C)N(C(=O)c2ccccc2)c2ccc(C)cc21,EC50,[23],6.89 µM (active)
same,AC50,[9],42.6 µM (active)
same,AC50,[24],7.28 µM (active)
same,AC50,[25],29.7 µM (active)
same,AC50,[11],42.2 µM (active)
